PMC5218480 (PLoS ONE, 2017)

System: MV-4-11 cells
Assay: Gene expression microarray analysis (Affymetrix PrimeView) and GSEA
Type: cell-based, human
Set-up: RFU PODN (11730768_x_at) / Fold change /veh PODN (11730768_x_at) / RFU LINC00158 (11744669_a_at) / Fold change /veh LINC00158 (11744669_a_at) / RFU DUSP10 (11751237_a_at) / Fold change /veh DUSP10 (11751237_a_at) / RFU ID3 (11757404_x_at) / Fold change /veh ID3 (11757404_x_at) / RFU PLEKHG5 (11737974_s_at) / Fold change /veh PLEKHG5 (11737974_s_at) / RFU LRRC4B (11730491_at) / Fold change /veh LRRC4B (11730491_at) / RFU GIMAP4 (11747438_a_at) / Fold change /veh GIMAP4 (11747438_a_at) / RFU KRT8 (11758183_x_at) / Fold change /veh KRT8 (11758183_x_at) / RFU CNN1 (11734310_a_at) / Fold change /veh CNN1 (11734310_a_at) / RFU VPS37D (11726825_at) / Fold change /veh VPS37D (11726825_at) / RFU C10orf10 (11716522_x_at) / Fold change /veh C10orf10 (11716522_x_at) / RFU KIR2DL2 /// KIR2DL4 /// KIR2DL5A /// KIR2DL5B /// KIR2DS1 /// KIR2DS2 /// KIR2DS3 /// KIR2DS4 /// KIR3DL3 /// KIR3DL3 /// KIR3DS1 (11738374_at) / Fold change /veh KIR2DL2 /// KIR2DL4 /// KIR2DL5A /// KIR2DL5B /// KIR2DS1 /// KIR2DS2 /// KIR2DS3 /// KIR2DS4 /// KIR3DL3 /// KIR3DL3 /// KIR3DS1 (11738374_at) / RFU C1QL1 (11718748_at) / Fold change /veh C1QL1 (11718748_at) / RFU TMPRSS4 (11747572_a_at) / Fold change /veh TMPRSS4 (11747572_a_at) / RFU HAMP (11756126_x_at) / Fold change /veh HAMP (11756126_x_at) / RFU RNFT2 (11725882_a_at) / Fold change /veh RNFT2 (11725882_a_at) / RFU NR4A2 (11747474_a_at) / Fold change /veh NR4A2 (11747474_a_at) / RFU ABCC12 (11746883_a_at) / Fold change /veh ABCC12 (11746883_a_at) / RFU TMEM136 (11760407_x_at) / Fold change /veh TMEM136 (11760407_x_at) / RFU CLDN22 /// WWC2 (11732394_at) / Fold change /veh CLDN22 /// WWC2 (11732394_at) / RFU HLA-DPB1 (11760878_x_at) / Fold change /veh HLA-DPB1 (11760878_x_at) / RFU SPINT1 (11716480_a_at) / Fold change /veh SPINT1 (11716480_a_at) / RFU GAP43 (11754022_s_at) / Fold change /veh GAP43 (11754022_s_at) / RFU A4GNT (11735810_at) / Fold change /veh A4GNT (11735810_at) / RFU PRB3 (11715151_x_at) / Fold change /veh PRB3 (11715151_x_at) / RFU TUBB4B (11761932_at) / Fold change /veh TUBB4B (11761932_at) / RFU CAPN14 (11732068_a_at) / Fold change /veh CAPN14 (11732068_a_at) / RFU TMCC2 (11721928_a_at) / Fold change /veh TMCC2 (11721928_a_at) / RFU IRGQ (11745062_a_at) / Fold change /veh IRGQ (11745062_a_at) / RFU FAM174B (11720279_a_at) / Fold change /veh FAM174B (11720279_a_at) / RFU TMPRSS4 (11748680_a_at) / Fold change /veh TMPRSS4 (11748680_a_at) / RFU FAM212B (11763350_a_at) / Fold change /veh FAM212B (11763350_a_at) / RFU PLEKHG5 (11743358_a_at) / Fold change /veh PLEKHG5 (11743358_a_at) / RFU ZSCAN30 (11745921_a_at) / Fold change /veh ZSCAN30 (11745921_a_at) / RFU CMKLR1 (11741424_a_at) / Fold change /veh CMKLR1 (11741424_a_at) / RFU LOC101060620 /// MAPK8IP1 (11723275_at) / Fold change /veh LOC101060620 /// MAPK8IP1 (11723275_at) / RFU SPTSSB (11747773_x_at) / Fold change /veh SPTSSB (11747773_x_at) / RFU PRSS12 (11739890_at) / Fold change /veh PRSS12 (11739890_at) / RFU BIN1 (11741810_x_at) / Fold change /veh BIN1 (11741810_x_at) / RFU WNT11 (11732464_a_at) / Fold change /veh WNT11 (11732464_a_at) / RFU C10orf10 (11716521_a_at) / Fold change /veh C10orf10 (11716521_a_at) / RFU C5orf56 (11738089_at) / Fold change /veh C5orf56 (11738089_at) / RFU CYB561 (11721691_x_at) / Fold change /veh CYB561 (11721691_x_at) / RFU ANKRD19P (11752326_a_at) / Fold change /veh ANKRD19P (11752326_a_at) / RFU OR2T12 /// OR2T33 /// OR2T8 (11738714_s_at) / Fold change /veh OR2T12 /// OR2T33 /// OR2T8 (11738714_s_at) / RFU VCAN (11748164_a_at) / Fold change /veh VCAN (11748164_a_at) / RFU JSRP1 (11732532_at) / Fold change /veh JSRP1 (11732532_at) / RFU KRTAP10-11 (11738290_x_at) / Fold change /veh KRTAP10-11 (11738290_x_at) / RFU MYO3A (11730013_a_at) / Fold change /veh MYO3A (11730013_a_at) / RFU EBF3 (11725865_a_at) / Fold change /veh EBF3 (11725865_a_at) / RFU CAMK2N1 (11719241_x_at) / Fold change /veh CAMK2N1 (11719241_x_at) / RFU C5orf56 (11738088_a_at) / Fold change /veh C5orf56 (11738088_a_at) / RFU OLFML3 (11715873_a_at) / Fold change /veh OLFML3 (11715873_a_at) / RFU LOC100653217 /// NTM (11731650_a_at) / Fold change /veh LOC100653217 /// NTM (11731650_a_at) / RFU MAPK11 (11762145_a_at) / Fold change /veh MAPK11 (11762145_a_at) / RFU FIZ1 (11724087_x_at) / Fold change /veh FIZ1 (11724087_x_at) / RFU OASL (11726364_x_at) / Fold change /veh OASL (11726364_x_at) / RFU SOX15 (11748057_x_at) / Fold change /veh SOX15 (11748057_x_at) / RFU CD79A (11719716_a_at) / Fold change /veh CD79A (11719716_a_at) / RFU HIST1H1D (11736915_at) / Fold change /veh HIST1H1D (11736915_at) / RFU CASKIN2 (11723855_a_at) / Fold change /veh CASKIN2 (11723855_a_at) / RFU LOC730098 (11760151_x_at) / Fold change /veh LOC730098 (11760151_x_at) / RFU OR4N2 (11742367_at) / Fold change /veh OR4N2 (11742367_at) / RFU PRRT2 (11749266_a_at) / Fold change /veh PRRT2 (11749266_a_at) / RFU SNX32 (11753110_a_at) / Fold change /veh SNX32 (11753110_a_at) / RFU CDHR5 (11726645_a_at) / Fold change /veh CDHR5 (11726645_a_at) / RFU RCAN1 (11760418_a_at) / Fold change /veh RCAN1 (11760418_a_at) / RFU FAM167A (11723789_a_at) / Fold change /veh FAM167A (11723789_a_at) / RFU FAM26E (11764081_at) / Fold change /veh FAM26E (11764081_at) / RFU ISYNA1 (11749810_s_at) / Fold change /veh ISYNA1 (11749810_s_at) / RFU ACY1 (11761880_at) / Fold change /veh ACY1 (11761880_at) / RFU 11764098_at / Fold change /veh 11764098_at / RFU SAMD14 (11745864_x_at) / Fold change /veh SAMD14 (11745864_x_at) / RFU NPB (11741838_a_at) / Fold change /veh NPB (11741838_a_at) / RFU TMPRSS6 (11731388_a_at) / Fold change /veh TMPRSS6 (11731388_a_at) / RFU KRTAP10-2 (11738614_at) / Fold change /veh KRTAP10-2 (11738614_at) / RFU ARHGAP8 /// PRR5-ARHGAP8 (11727945_x_at) / Fold change /veh ARHGAP8 /// PRR5-ARHGAP8 (11727945_x_at) / RFU KRTAP5-7 /// NADSYN1 (11734609_at) / Fold change /veh KRTAP5-7 /// NADSYN1 (11734609_at) / RFU RASL12 (11751679_a_at) / Fold change /veh RASL12 (11751679_a_at) / RFU CDKN2B (11736163_a_at) / Fold change /veh CDKN2B (11736163_a_at) / RFU PRF1 (11729649_at) / Fold change /veh PRF1 (11729649_at) / RFU, ZNF638 /// ZNF638-IT1 / Fold change vs veh, ZNF638 /// ZNF638-IT1 / RFU, PANK3 / Fold change vs veh, PANK3 / RFU, SH3YL1 / Fold change vs veh, SH3YL1 / RFU, ZEB2 / Fold change vs veh, ZEB2 / RFU, NRIP1 / Fold change vs veh, NRIP1 / RFU, PTTG1IP / Fold change vs veh, PTTG1IP / RFU, CAPN2 / Fold change vs veh, CAPN2 / RFU, MED14 / Fold change vs veh, MED14 / RFU, SNORA58 / Fold change vs veh, SNORA58 / RFU, C1orf63 / Fold change vs veh, C1orf63 / RFU, LRRFIP1 / Fold change vs veh, LRRFIP1 / RFU, NDUFAF7 / Fold change vs veh, NDUFAF7 / RFU, SLC12A2 / Fold change vs veh, SLC12A2 / RFU, IBTK / Fold change vs veh, IBTK / RFU, ESF1 / Fold change vs veh, ESF1 / Fold change vs veh, TMEM50B / RFU, TAOK1 / Fold change vs veh, TAOK1 / RFU, ACBD3 / Fold change vs veh, ACBD3 / RFU, TMA16 / Fold change vs veh, TMA16 / RFU, RWDD3 / Fold change vs veh, RWDD3 / RFU, BCAT1 / Fold change vs veh, BCAT1 / RFU, EDEM3 / Fold change vs veh, EDEM3 / RFU, TMEM33 / Fold change vs veh, TMEM33 / RFU, WDR75 / Fold change vs veh, WDR75 / RFU, AHCTF1 / Fold change vs veh, AHCTF1 / RFU, TFRC / Fold change vs veh, TFRC / RFU, ZDHHC17 / Fold change vs veh, ZDHHC17 / RFU, NOM1 / Fold change vs veh, NOM1 / RFU, ARL8B / Fold change vs veh, ARL8B / RFU, ZBTB11 / Fold change vs veh, ZBTB11 / RFU, TAMM41 / Fold change vs veh, TAMM41 / RFU, KIAA1704 /// LOC100996395 / Fold change vs veh, KIAA1704 /// LOC100996395 / RFU, ING1 / Fold change vs veh, ING1 / RFU, TRMT61B / Fold change vs veh, TRMT61B / RFU, FUBP3 / Fold change vs veh, FUBP3 / RFU, TP53 / Fold change vs veh, TP53 / RFU, TNKS2 / Fold change vs veh, TNKS2 / RFU, ZFP14 / Fold change vs veh, ZFP14 / RFU, ACTR2 / Fold change vs veh, ACTR2 / RFU, PPP3R1 / Fold change vs veh, PPP3R1 / RFU, PIK3R1 / Fold change vs veh, PIK3R1 / RFU, HNRNPA1 / Fold change vs veh, HNRNPA1 / RFU, RNF170 / Fold change vs veh, RNF170 / RFU, ZNF28 / Fold change vs veh, ZNF28 / RFU, RNGTT / Fold change vs veh, RNGTT / RFU, OGT / Fold change vs veh, OGT / RFU, BRD1 / Fold change vs veh, BRD1 / RFU, MARS / Fold change vs veh, MARS / RFU, ZNF655 / Fold change vs veh, ZNF655 / RFU, FAHD1 / Fold change vs veh, FAHD1 / RFU, BDP1 / Fold change vs veh, BDP1 / RFU, LRRCC1 / Fold change vs veh, LRRCC1 / RFU, ARID1A / Fold change vs veh, ARID1A / RFU, ZNF146 / Fold change vs veh, ZNF146 / RFU, ZNF330 / Fold change vs veh, ZNF330 / RFU, GPN3 / Fold change vs veh, GPN3 / RFU, C9orf123 / Fold change vs veh, C9orf123 / RFU, N4BP2L2 / Fold change vs veh, N4BP2L2 / RFU, ARFIP1 / Fold change vs veh, ARFIP1 / RFU, FAM179B / Fold change vs veh, FAM179B / RFU, BCL10 / Fold change vs veh, BCL10 / RFU, UHRF1BP1L / Fold change vs veh, UHRF1BP1L / RFU, BET1 / Fold change vs veh, BET1 / RFU, CNOT2 / Fold change vs veh, CNOT2 / RFU, ZNF268 / Fold change vs veh, ZNF268 / Fold change vs veh, ZNF507 / RFU, DGCR2 / Fold change vs veh, DGCR2 / RFU, WDSUB1 / Fold change vs veh, WDSUB1 / Fold change vs veh, HSP90B1 /// MIR3652 / RFU, ADSS / Fold change vs veh, ADSS / RFU, GK / Fold change vs veh, GK / RFU, ZNF148 / Fold change vs veh, ZNF148 / RFU, TAF9 / Fold change vs veh, TAF9 / RFU, SLC1A5 / Fold change vs veh, SLC1A5 / RFU, SLMO2 / Fold change vs veh, SLMO2 / RFU, ABCC4 / Fold change vs veh, ABCC4 / RFU, LOC101060439 /// RAP1B / Fold change vs veh, LOC101060439 /// RAP1B / RFU, RFX7 / Fold change vs veh, RFX7 / RFU, GTPBP10 / Fold change vs veh, GTPBP10 / RFU, CNEP1R1 / Fold change vs veh, CNEP1R1 / RFU, BIVM-ERCC5 /// ERCC5 / Fold change vs veh, BIVM-ERCC5 /// ERCC5 / RFU, ILF3 / Fold change vs veh, ILF3 / RFU 11762660_at / Fold change /veh 11762660_at / RFU VCAN (11757783_s_at) / Fold change /veh VCAN (11757783_s_at) / RFU DDX43 (11728927_at) / Fold change /veh DDX43 (11728927_at) / RFU KRT8 (11758188_x_at) / Fold change /veh KRT8 (11758188_x_at) / RFU NKD1 (11759106_at) / Fold change /veh NKD1 (11759106_at) / RFU SRD5A1 (11742802_a_at) / Fold change /veh SRD5A1 (11742802_a_at) / RFU TPSAB1 /// TPSB2 (11721975_s_at) / Fold change /veh TPSAB1 /// TPSB2 (11721975_s_at) / RFU GSTM3 (11746129_a_at) / Fold change /veh GSTM3 (11746129_a_at) / RFU IL23R (11737362_x_at) / Fold change /veh IL23R (11737362_x_at) / RFU TMEM51 (11727254_a_at) / Fold change /veh TMEM51 (11727254_a_at) / RFU PIWIL2 (11732686_x_at) / Fold change /veh PIWIL2 (11732686_x_at) / RFU ORM1 (11744905_x_at) / Fold change /veh ORM1 (11744905_x_at) / RFU CCDC152 (11743942_at) / Fold change /veh CCDC152 (11743942_at) / RFU ECM1 (11717891_a_at) / Fold change /veh ECM1 (11717891_a_at) / RFU IL23R (11748794_a_at) / Fold change /veh IL23R (11748794_a_at) / RFU TNFAIP8L3 (11732012_x_at) / Fold change /veh TNFAIP8L3 (11732012_x_at) / RFU MBOAT4 (11741988_at) / Fold change /veh MBOAT4 (11741988_at) / RFU 11764193_at / Fold change /veh 11764193_at / RFU TMEM53 (11763286_at) / Fold change /veh TMEM53 (11763286_at) / RFU MAGEB2 (11727129_at) / Fold change /veh MAGEB2 (11727129_at) / RFU TMEM200A (11744735_a_at) / Fold change /veh TMEM200A (11744735_a_at) / RFU CCDC152 (11751479_a_at) / Fold change /veh CCDC152 (11751479_a_at) / RFU FAM211A (11726209_a_at) / Fold change /veh FAM211A (11726209_a_at) / RFU RGS16 (11746705_a_at) / Fold change /veh RGS16 (11746705_a_at) / RFU VCAN (11755009_s_at) / Fold change /veh VCAN (11755009_s_at) / RFU RHOB (11743442_s_at) / Fold change /veh RHOB (11743442_s_at) / RFU RGS16 (11720943_a_at) / Fold change /veh RGS16 (11720943_a_at) / RFU RGS16 (11720944_at) / Fold change /veh RGS16 (11720944_at) / RFU, VPS4B / Fold change vs veh, VPS4B / RFU, CREB1 / Fold change vs veh, CREB1 / RFU, DNAJC13 / Fold change vs veh, DNAJC13 / RFU, GNAQ / Fold change vs veh, GNAQ / RFU, CDK5R1 / Fold change vs veh, CDK5R1 / RFU, ZRANB3 / Fold change vs veh, ZRANB3 / RFU, CUL4A / Fold change vs veh, CUL4A / RFU, CCNY / Fold change vs veh, CCNY / RFU, UFL1 / Fold change vs veh, UFL1 / RFU, COG3 / Fold change vs veh, COG3 / RFU, DIAPH2 / Fold change vs veh, DIAPH2 / RFU, SKA2 / Fold change vs veh, SKA2 / RFU, AFF3 / Fold change vs veh, AFF3 / RFU, LMF1 / Fold change vs veh, LMF1 / RFU, IPO11 / Fold change vs veh, IPO11 / RFU, DFFB / Fold change vs veh, DFFB / RFU, FOXP1 / Fold change vs veh, FOXP1 / RFU, CARD8 / Fold change vs veh, CARD8 / RFU, STRN3 / Fold change vs veh, STRN3 / RFU, ADK / Fold change vs veh, ADK / RFU, RASSF2 / Fold change vs veh, RASSF2 / RFU, WIPF1 / Fold change vs veh, WIPF1 / RFU, LARP1B / Fold change vs veh, LARP1B / RFU, RASA1 / Fold change vs veh, RASA1 / RFU, RB1 / Fold change vs veh, RB1 / RFU, PPFIA1 / Fold change vs veh, PPFIA1 / RFU, MAT2A / Fold change vs veh, MAT2A / RFU, CCT5 / Fold change vs veh, CCT5 / RFU, WDR92 / Fold change vs veh, WDR92 / RFU, CUX1 / Fold change vs veh, CUX1 / RFU, TTC7A / Fold change vs veh, TTC7A / RFU, TMEM135 / Fold change vs veh, TMEM135 / RFU, DEPTOR / Fold change vs veh, DEPTOR / RFU, CPM / Fold change vs veh, CPM / RFU, DNAJB6 / Fold change vs veh, DNAJB6 / RFU, CACNA2D3 / Fold change vs veh, CACNA2D3 / RFU, DTX4 / Fold change vs veh, DTX4 / RFU, TFCP2 / Fold change vs veh, TFCP2 / RFU, GMCL1 /// GMCL1P1 / Fold change vs veh, GMCL1 /// GMCL1P1 / RFU, AEBP2 / Fold change vs veh, AEBP2 / RFU, SNHG1 /// SNORD22 /// SNORD25 /// SNORD26 /// SNORD27 /// SNORD28 /// SNORD29 /// SNORD31 / Fold change vs veh, SNHG1 /// SNORD22 /// SNORD25 /// SNORD26 /// SNORD27 /// SNORD28 /// SNORD29 /// SNORD31 / Fold change (Aza/veh), C12orf56 (ProbeSet 11735607_a_at) / Fold change (ACY-1035/veh), C12orf56 (ProbeSet 11735607_a_at) / Fold change (Aza/veh), FGFR1OP (ProbeSet 11751329_s_at) / Fold change (ACY-1035/veh), FGFR1OP (ProbeSet 11751329_s_at) / Fold change (Aza/veh), VPS36 (ProbeSet 11739960_a_at) / Fold change (ACY-1035/veh), VPS36 (ProbeSet 11739960_a_at) / RFU SYPL1 (11715823_x_at) / Fold change /veh SYPL1 (11715823_x_at) / RFU IGFBP7 (11715501_s_at) / Fold change /veh IGFBP7 (11715501_s_at) / RFU REEP3 (11722064_at) / Fold change /veh REEP3 (11722064_at) / RFU IGLL1 (11728026_x_at) / Fold change /veh IGLL1 (11728026_x_at): dose or concentration left out as unconfirmed
Conditions: ProbeSet 11721611_a_at; LIST D

Q: How did the “Fold change vs veh, IPO11” value turn out when `Nc1ncn([C@@H]2O[C@H](CO)[C@@H](O)[C@H]2O)c(=O)n1` [azacitidine] was run?
A: Its value is 0.66.
